# Reference: ChEMBL document CHEMBL1126541, “Novel water soluble phosphate prodrugs of taxol possessing in vivo antitumor activity” (1993)
# Columns and labels:
# Type in all cases: functional, Mus musculus
# M109 [1] = assay: In vivo antitumor activity of the taxol was determined in M109 (Murine lung carcinoma cells) tumor model after (ip) administration in 10% Tween 80 in saline on days 5 and 8 at dose of 40 mg/kg/injection in presence of Taxol
# M109 [2] = assay: In vivo antitumor activity in M109 (Murine lung carcinoma cells) tumor model after (ip) administration on days 5 and 8 at dose of 140 mg/kg/injection.
# M109 [3] = assay: In vivo antitumor activity in M109 (Murine lung carcinoma cells) tumor model after (ip) administration on days 5 and 8 at dose of 70 mg/kg/injection.
# M109 [4] = assay: In vivo antitumor activity of the taxol was determined in M109 (Murine lung carcinoma cells) tumor model after (ip) administration in 10% Tween 80 in saline on days1, 5, and 9 at a dose of 30 mg/kg/injection in presence of Taxol
# M109 [5] = assay: In vivo antitumor activity in M109 (Murine lung carcinoma cells) tumor model after (ip) administration on days 1, 5,and 9 at dose of 100 mg/kg/injection.
Structure (SMILES),T/C (M109 [1]) [%],T/C (M109 [2]) [%],T/C (M109 [3]) [%],T/C (M109 [4]) [%],T/C (M109 [5]) [%]
CC(=O)O[C@H]1C(=O)[C@]2(C)[C@@H](OC(=O)CC(C)(C)c3c(C)cc(C)cc3OP(=O)([O-])[O-])C[C@H]3OC[C@@]3(OC(C)=O)[C@H]2[C@H](OC(=O)c2ccccc2)[C@]2(O)C[C@H](OC(=O)[C@H](O)[C@@H](NC(=O)c3ccccc3)c3ccccc3)C(C)=C1C2(C)C.[Na+].[Na+],144,156,153,,
CC(=O)O[C@H]1C(=O)[C@@]2(C)[C@H]([C@H](OC(=O)c3ccccc3)[C@]3(O)C[C@H](OC(=O)[C@H](OC(=O)CC(C)(C)c4c(C)cc(C)cc4OP(=O)([O-])[O-])[C@@H](NC(=O)c4ccccc4)c4ccccc4)C(C)=C1C3(C)C)[C@]1(OC(C)=O)CO[C@@H]1C[C@@H]2O.[Na+].[Na+],,,,275,144
